# According to PubChem BioAssay (NCI):
#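 GI50: concentration for 50% inhibition of growth. At the TGI there is no net growth.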
# What was measured:
# Experiment in all cases: inhibition of tumour cell growth, NCI panel, 384-well format
# HS 578T breast = test system: HS 578T breast
# HT29 colon = test system: HT29 colon
# LOX IMVI melanoma = test system: LOX IMVI melanoma
# MOLT-4 leukemia = test system: MOLT-4 leukemia
# NCI-H322M lung = test system: NCI-H322M lung
# OVCAR-4 ovarian = test system: OVCAR-4 ovarian
# RPMI-8226 leukemia = test system: RPMI-8226 leukemia
# RXF 393 renal = test system: RXF 393 renal
# SK-MEL-5 melanoma = test system: SK-MEL-5 melanoma
# SW-620 colon = test system: SW-620 colon
# T-47D breast = test system: T-47D breast
# U251 glioblastoma = test system: U251 glioblastoma
# UACC-257 melanoma = test system: UACC-257 melanoma
Structure (SMILES),GI50 (HS 578T breast) [nM],TGI (HS 578T breast) [nM],GI50 (HT29 colon) [nM],TGI (HT29 colon) [nM],GI50 (LOX IMVI melanoma) [nM],TGI (LOX IMVI melanoma) [nM],GI50 (MOLT-4 leukemia) [nM],TGI (MOLT-4 leukemia) [nM],GI50 (NCI-H322M lung) [nM],TGI (NCI-H322M lung) [nM],GI50 (OVCAR-4 ovarian) [nM],TGI (OVCAR-4 ovarian) [nM],GI50 (RPMI-8226 leukemia) [nM],TGI (RPMI-8226 leukemia) [nM],GI50 (RXF 393 renal) [nM],TGI (RXF 393 renal) [nM],GI50 (SK-MEL-5 melanoma) [nM],TGI (SK-MEL-5 melanoma) [nM],GI50 (SW-620 colon) [nM],TGI (SW-620 colon) [nM],further results
Cc1[nH]c2ccccc2c1CCNCc1ccc(/C=C/C(=O)NO)cc1,11.5,24.3,12.5,28.5,13.1,26.2,< 10,< 10,13.9,53.8,27.5,60.9,< 10,< 10,< 11.7,18.6,< 10,14,12.3,25.5,GI50 (T-47D breast): < 10.9 nM; TGI (T-47D breast): 21.4 nM; GI50 (U251 glioblastoma): 12.2 nM; TGI (U251 glioblastoma): 26.8 nM; GI50 (UACC-257 melanoma): < 10.7 nM; TGI (UACC-257 melanoma): 24.4 nM
COCCNc1cc(NC(=O)N2CCCc3cc(CN4CCN(C)CC4=O)c(C=O)nc32)ncc1C#N,> 100000,> 100000,> 100000,> 100000,> 100000,> 100000,6800,> 100000,> 100000,> 100000,> 100000,> 100000,> 21100,> 43900,> 100000,> 100000,> 100000,> 100000,> 100000,> 100000,GI50 (T-47D breast): > 77700 nM; TGI (T-47D breast): > 100000 nM; GI50 (U251 glioblastoma): > 100000 nM; TGI (U251 glioblastoma): > 100000 nM; GI50 (UACC-257 melanoma): > 100000 nM; TGI (UACC-257 melanoma): > 100000 nM
